# In PMC8123127, “Structural Bases for the Synergistic Inhibition of Human Thymidylate Synthase and Ovarian Cancer Cell Growth by Drug Combinations” (Cancers, 2021):
# Read-outs that look alike come from different tables or passages of the source.
# Legend:
# Assay in all cases: cells
# [1] = tested on: A2780 cells; set-up: species or system 2008, C13*, A2780/CP; growth inhibition of human ovarian cancer cell lines after 72 h treatment, cell counts; settings: Homo sapiens, A2780, 72 h
# Method: (§1) The drug concentrations used in the combinations were based on the IC50s. These are reported in Table S3 of the Supplementary Information. The effects of binary combinations were determined with both drug concentrations lower than their IC50s and were characterized in terms of the synergism quotient. […] With 5 μM 5FU alone, cell growth inhibitions were 24.7, 21.2, 28.3, and 27.1% for 2008, C13*, A2780, and A2780/CP, respectively. […] The bars represent the mean of duplicate cell counts on three separate experiments. A quotient > 1 indicates synergism, =1, additivity <1 antagonism. Error bars represent SEM.
# [2] = tested on: 2008 cells; set-up: species or system C13*, A2780, A2780/CP; growth inhibition of human ovarian cancer cell lines after 72 h treatment, cell counts; settings: 72 h
# Method: as §1
# [3] = tested on: A2780/CP cells; set-up: species or system 2008, C13*; growth inhibition of human ovarian cancer cell lines after 72 h treatment, cell counts; settings: A2780C/P, 72 h
# Method: as §1
# [4] = tested on: C13* cells; set-up: species or system 2008, A2780, A2780/CP; growth inhibition of human ovarian cancer cell lines after 72 h treatment, cell counts; settings: Homo sapiens, C13, 72 h
# Method: as §1
IC50 ([1]; read-out: RTX (nM) IC50) [nM],IC50 ([3]; read-out: RTX (nM) IC50) [nM],IC50 ([1]; read-out: 5-FU (µM) IC50) [nM],IC50 ([3]; read-out: 5-FU (µM) IC50) [nM],SMILES,IC50 ([2]; read-out: RTX (nM) IC50) [nM],IC50 ([4]; read-out: RTX (nM) IC50) [nM],IC50 ([2]; read-out: 5-FU (µM) IC50) [nM],IC50 ([4]; read-out: 5-FU (µM) IC50) [nM]
8.6 ± 1.2,31.1 ± 2.9,,,"Cc1nc(=O)c2cc(CN(C)c3ccc(C(=O)N[C@@H](CCC(=O)O)C(=O)O)s3)ccc2[nH]1 [RTX, N-[(5-{methyl[(2-methyl-4-oxo-1,4-dihydroquinazolin-6-yl)methyl]amino}-2-thienyl)carbonyl]-L-glutamic acid]",9.5 ± 1,26.2 ± 3,,
,,9500 ± 800,12900 ± 1100,"O=c1[nH]cc(F)c(=O)[nH]1 [5-FU, 5-fluorouracil]",,,6300 ± 400,12400 ± 800
